± gives the standard deviation of the averaged measurements.
What was measured:
[1] = compound: COc1cc2ncnc(Nc3ccc(F)c(Cl)c3)c2cc1NC(=O)/C=C/CN1CCCCC1; assay: surviving fraction relative to DMSO-only wells; higher = less growth inhibition; conditions: exposure time: 5 days
In short: (§1)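 Tumour cell lines were grown to log phase and seeded at 250–500 cells per well in 384-well plates. They were exposed continuously to inhibitors at 0.5, 1, 5, 10, 50, 100, 500 and 1000 nM for five days, beginning 24 hours after seeding. Surviving fraction is CellTiter-Glo luminescence normalised to the median of DMSO-only wells.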

[2] = compound: Oc1nc(-c2ccc(C(F)(F)F)cc2)nc2c1CSCC2 [XAV-939]; assay: as above; conditions: exposure time: 5 days
In short: as §1

Row | Test System | surviving fraction ([1]; 0.5 nM) | surviving fraction ([1]; 1 nM) | surviving fraction ([1]; 5 nM) | surviving fraction ([1]; 10 nM) | surviving fraction ([1]; 50 nM) | surviving fraction ([1]; 100 nM) | surviving fraction ([1]; 500 nM) | surviving fraction ([1]; 1000 nM) | surviving fraction ([2]; 0.5 nM) | surviving fraction ([2]; 1 nM) | surviving fraction ([2]; 5 nM) | surviving fraction ([2]; 10 nM) | surviving fraction ([2]; 50 nM) | surviving fraction ([2]; 100 nM) | surviving fraction ([2]; 500 nM) | surviving fraction ([2]; 1000 nM)
1 | 22RV1 PROSTATE | 1 ± 0.17 | 1.04 ± 0.099 | 0.977 ± 0.059 | 1 ± 0.087 | 1.03 ± 0.05 | 0.97 ± 0.063 | 1.02 ± 0.061 | 0.9 ± 0.045 | 1.02 ± 0.072 | 1.05 ± 0.11 | 1.03 ± 0.032 | 1 ± 0.065 | 0.934 ± 0.024 | 0.977 ± 0.024 | 1 ± 0.12 | 1.03 ± 0.096
2 | 93VU HEADNECK | 0.834 ± 0.065 | 0.8653 ± 0.005 | 0.651 ± 0.02 | 0.541 ± 0.12 | 0.465 ± 0.016 | 0.456 ± 0.034 | 0.353 ± 0.036 | 0.267 ± 0.025 | 0.98 ± 0.073 | 1.06 ± 0.071 | 1.11 ± 0.091 | 1.07 ± 0.077 | 1.15 ± 0.095 | 1.17 ± 0.066 | 1.05 ± 0.089 | 0.907 ± 0.035
3 | 143B BONE | 1.03 ± 0.027 | 1.006 ± 0.005 | 1.01 ± 0.067 | 1.01 ± 0.033 | 1.02 ± 0.018 | 1.01 ± 0.03 | 0.957 ± 0.016 | 0.831 ± 0.04 | 0.977 ± 0.026 | 1.02 ± 0.012 | 0.952 ± 0.14 | 1.02 ± 0.042 | 0.911 ± 0.15 | 1.03 ± 0.044 | 0.922 ± 0.069 | 1.02 ± 0.023
4 | A549 LUNG | 1.03 ± 0.089 | 0.985 ± 0.053 | 0.986 ± 0.08 | 0.962 ± 0.034 | 1.04 ± 0.066 | 1.02 ± 0.024 | 1 ± 0.044 | 1.02 ± 0.042 | 0.967 ± 0.022 | 0.985 ± 0.053 | 1.01 ± 0.035 | 1.02 ± 0.087 | 1.07 ± 0.022 | 1.12 ± 0.013 | 1.084 ± 0.0087 | 1.14 ± 0.022
5 | ASKA SYNOVIAL | 1.11 ± 0.094 | 1.23 ± 0.051 | 1.15 ± 0.038 | 1.24 ± 0.14 | 1.3 ± 0.068 | 1.29 ± 0.04 | 0.959 ± 0.021 | 1.12 ± 0.019 | 1.15 ± 0.11 | 1.17 ± 0.098 | 1.18 ± 0.028 | 1.23 ± 0.13 | 1.2 ± 0.073 | 1.14 ± 0.065 | 0.98 ± 0.068 | 0.984 ± 0.023
6 | BT20 BREAST | 1.08 ± 0.071 | 1 ± 0.12 | 0.895 ± 0.015 | 0.934 ± 0.13 | 1.05 ± 0.028 | 0.996 ± 0.13 | 1.13 ± 0.045 | 0.809 ± 0.16 | 1.08 ± 0.19 | 1.06 ± 0.043 | 1.05 ± 0.079 | 1.05 ± 0.051 | 1.08 ± 0.14 | 1.14 ± 0.05 | 1.26 ± 0.057 | 1.23 ± 0.1
7 | BT549 BREAST | 0.991 ± 0.049 | 1.1 ± 0.15 | 1.02 ± 0.17 | 1.06 ± 0.13 | 1 ± 0.037 | 0.927 ± 0.14 | 0.727 ± 0.058 | 0.473 ± 0.08 | 1.16 ± 0.085 | 1.19 ± 0.079 | 1.03 ± 0.077 | 1.16 ± 0.082 | 1.18 ± 0.044 | 1.08 ± 0.091 | 0.884 ± 0.014 | 0.872 ± 0.091
8 | C33A CERVIX | 0.793 ± 0.044 | 0.93 ± 0.15 | 0.899 ± 0.017 | 0.802 ± 0.085 | 0.517 ± 0.051 | 0.428 ± 0.022 | 0.358 ± 0.019 | 0.296 ± 0.02 | 0.909 ± 0.039 | 0.973 ± 0.1 | 0.981 ± 0.032 | 1.03 ± 0.068 | 0.913 ± 0.068 | 0.901 ± 0.048 | 0.835 ± 0.062 | 0.755 ± 0.04
9 | CADOES1 SOFT TISSUE | 0.985 ± 0.058 | 0.938 ± 0.14 | 1.03 ± 0.16 | 0.873 ± 0.046 | 0.884 ± 0.07 | 0.896 ± 0.047 | 0.891 ± 0.018 | 0.7 ± 0.031 | 0.957 ± 0.1 | 0.993 ± 0.092 | 0.816 ± 0.0092 | 0.903 ± 0.049 | 0.857 ± 0.13 | 0.899 ± 0.094 | 0.922 ± 0.076 | 0.913 ± 0.091
10 | CAL51 BREAST | 0.985 ± 0.05 | 1.03 ± 0.076 | 1 ± 0.086 | 0.968 ± 0.031 | 1.03 ± 0.08 | 1.02 ± 0.1 | 0.9793 ± 0.0063 | 0.848 ± 0.027 | 0.967 ± 0.032 | 1.03 ± 0.046 | 1.02 ± 0.025 | 0.992 ± 0.017 | 1.01 ± 0.049 | 1.01 ± 0.023 | 0.846 ± 0.033 | 0.799 ± 0.089
11 | CAL72 BONE | 1.08 ± 0.014 | 1.06 ± 0.042 | 1.08 ± 0.062 | 1.03 ± 0.024 | 1.06 ± 0.055 | 1.07 ± 0.034 | 0.943 ± 0.019 | 0.818 ± 0.017 | 1.07 ± 0.023 | 1.05 ± 0.013 | 0.999 ± 0.015 | 0.976 ± 0.023 | 0.944 ± 0.012 | 0.957 ± 0.029 | 0.916 ± 0.038 | 0.9 ± 0.025
12 | CAL120 BREAST | 0.98 ± 0.016 | 0.952 ± 0.014 | 0.965 ± 0.021 | 0.973 ± 0.038 | 0.959 ± 0.022 | 0.961 ± 0.04 | 0.837 ± 0.025 | 0.543 ± 0.019 | 0.984 ± 0.027 | 1.02 ± 0.013 | 1.01 ± 0.019 | 0.969 ± 0.018 | 1.01 ± 0.021 | 1.011 ± 0.0096 | 0.951 ± 0.012 | 0.9582 ± 0.0029
13 | CASKI CERVIX | 0.801 ± 0.054 | 0.762 ± 0.015 | 0.468 ± 0.0036 | 0.336 ± 0.024 | 0.285 ± 0.025 | 0.2623 ± 0.0023 | 0.0627 ± 0.013 | 0.024 ± 0.002 | 0.918 ± 0.017 | 0.944 ± 0.037 | 0.975 ± 0.011 | 0.997 ± 0.013 | 1.03 ± 0.028 | 1.06 ± 0.03 | 0.935 ± 0.037 | 0.965 ± 0.051
14 | CHLA90 AUTONOMIC GANGLIA | 1 ± 0.048 | 0.982 ± 0.085 | 0.853 ± 0.049 | 0.834 ± 0.016 | 0.818 ± 0.023 | 0.769 ± 0.048 | 0.781 ± 0.04 | 0.596 ± 0.022 | 1.01 ± 0.071 | 1.04 ± 0.051 | 0.989 ± 0.031 | 0.997 ± 0.045 | 0.975 ± 0.019 | 0.948 ± 0.067 | 0.987 ± 0.072 | 0.933 ± 0.022
15 | CME SYNOVIAL | 1.2 ± 0.09 | 1.4 ± 0.17 | 1.29 ± 0.12 | 1.39 ± 0.15 | 1.42 ± 0.18 | 1.37 ± 0.11 | 1.26 ± 0.098 | 1.27 ± 0.12 | 1.27 ± 0.24 | 1.2 ± 0.093 | 1.25 ± 0.16 | 1.3 ± 0.093 | 1.29 ± 0.14 | 1.3 ± 0.071 | 1.1 ± 0.03 | 0.952 ± 0.094
16 | COLO320DM LARGE INTESTINE | 1.04 ± 0.011 | 1.15 ± 0.067 | 1.07 ± 0.015 | 1.07 ± 0.068 | 1.12 ± 0.076 | 1.07 ± 0.055 | 0.685 ± 0.03 | 0.377 ± 0.025 | 1.1 ± 0.051 | 1.14 ± 0.069 | 1.08 ± 0.15 | 0.997 ± 0.11 | 1.08 ± 0.013 | 0.994 ± 0.075 | 0.827 ± 0.071 | 0.805 ± 0.088
17 | DU4475 BREAST | 0.798 ± 0.057 | 0.876 ± 0.044 | 0.901 ± 0.12 | 0.987 ± 0.21 | 0.908 ± 0.14 | 1.09 ± 0.14 | 1.14 ± 0.19 | 0.985 ± 0.054 | 1.02 ± 0.28 | 0.857 ± 0.17 | 0.884 ± 0.18 | 1.05 ± 0.12 | 1.07 ± 0.17 | 1.16 ± 0.18 | 1.15 ± 0.33 | 1.1 ± 0.25
18 | H23 LUNG | 0.91 ± 0.056 | 0.744 ± 0.035 | 0.468 ± 0.015 | 0.414 ± 0.026 | 0.381 ± 0.013 | 0.38 ± 0.018 | 0.332 ± 0.023 | 0.292 ± 0.023 | 0.953 ± 0.035 | 1.03 ± 0.062 | 1.04 ± 0.071 | 1.08 ± 0.075 | 1.01 ± 0.037 | 0.992 ± 0.02 | 0.391 ± 0.041 | 0.318 ± 0.024
19 | HCC78 LUNG | 0.902 ± 0.2 | 0.733 ± 0.13 | 0.87 ± 0.051 | 0.827 ± 0.21 | 0.749 ± 0.12 | 0.857 ± 0.086 | 0.595 ± 0.23 | 0.447 ± 0.02 | 0.9 ± 0.1 | 0.925 ± 0.12 | 1.09 ± 0.18 | 0.991 ± 0.13 | 0.983 ± 0.082 | 0.822 ± 0.16 | 0.286 ± 0.062 | 0.358 ± 0.08
20 | HCC202 BREAST | 1.1 ± 0.1 | 1.06 ± 0.15 | 0.723 ± 0.13 | 0.757 ± 0.14 | 0.373 ± 0.041 | 0.297 ± 0.067 | 0.131 ± 0.026 | 0.0933 ± 0.023 | 1.4 ± 0.094 | 1.23 ± 0.2 | 1.17 ± 0.094 | 0.972 ± 0.14 | 1.12 ± 0.18 | 0.905 ± 0.077 | 1.04 ± 0.2 | 0.953 ± 0.065

Source: the supplement of paper PMC6045584
